# Publication PMC6642116, “Structural and functional analyses of hepatitis B virus X protein BH3-like domain and Bcl-xL interaction” (Nature Communications, 2019)
# Test system: HBV replication from pHBV1.3-Xnull replicon in HepG2 cells
# Assay: HBV production rescue assay, PEP-1 delivered peptides
# Format: cell-based
# Details: HepG2 + pHBV1.3-Xnull, peptide/PEP-1, 48 h
# From the text: Fig. 3 The HBx-BH3-like domain is critical for HBV production in HepG2 cells. a–e C-terminal biotinylated HBx-aa113–135 peptides (both wild-type (WT) and the W120A/L123A double mutant) were delivered into HepG2 cells transfected with pHBV1.3-Xnull using PEP-1 nanoparticles (Methods) and analyzed by streptavidin-FITC (fluorescein isothiocyanate) for transfection efficiency (a). Scale bar is 50 μm. An unrelated 23-aa peptide was used as a control (Control). The intracellular expression levels of HBV core antigen (HBcAg (b) and the levels of HBV e-antigen (HBeAg) (c), HBV S-antigen (HBsAg) (d), and HBV DNA (e) in the culture medium collected from HepG2 cells were measured (Methods). The results are shown as fold change to the WT HBx-aa113–135 peptide (WT). f–i) HepG2 cells were co-transfected with pHBV1.3-Xnull and pTT22m-HBx-WT (WT), pHBV1.3-Xnull and pTT22m-HBx(W120A/L123A), or pHBV1.3-Xnull and the pTT22m vector control (Control). Intracellular expression levels of HBcAg (f) and the levels of HBeAg (g), HBsAg (h), and HBV DNA (i) in the culture medium from HepG2 cells were measured similarly. The results are shown as fold change to the combination of pHBV1.3-Xnull and pTT22m-HBx-WT (WT). Data shown represent mean ± SD. Significance is indicated on the top. **P < 0.01, ***P < 0.001, ****P < 0.0001; two-tailed unpaired t tests (n = 3 biologically independent samples). Source data are provided as a Source Data file
# HepG2 cells were grown in Dulbecco’s modified Eagle’s medium (DMEM) with 10% Gibco fetal bovine serum. C-terminal biotinylated-labeled HBx peptides were transfected into HepG2 cells by pep-1[16], a peptide carrier for the delivery of biologically active proteins into mammalian cells. HBx peptides and pep-1 were firstly dissolved in DMEM to 1 mg/ml, then adjusted to 500 µl DMEM to a final concentration of 100 µg/ml, and incubated at 37 °C for 30 min in the tube. The incubated peptide mixture was added into pre-seeded HepG2 cells in a 24-well plate and incubated for another 30 min, and then washed five times by phosphate-buffered saline (PBS) to remove the free peptides. The transfected C-terminal biotinylated HBx peptides were detected by using streptavidin-FITC (fluorescein isothiocyanate) equipment (Thermo Fisher Scientific) following the standard immunostaining methods.
# Transfection of plasmids into HepG2 cells was carried out using X-tremeGENE HP DNA Transfection Reagent (Roche), following the manufacturer’s protocol. A transfection efficiency of 20–30% could be achieved. Cells were pre-seeded 24 h before transfections. pHBV1.3-HBx-null plasmid was transfected into HepG2 cells for 6 h, then HBx-aa113–135, HBx-aa113–135-(W120A, L123A), or control peptide was transfected by pep-1 carrier and incubated for additional 48 h without the removal of peptides. The culture media of the HepG2 cells were harvest for analysis.
# The levels of HBsAg, HBeAg, and HBcAg expression were measured by chemiluminescence, using Commercial Assay Kit (Wantai, Beijing, China). Northern blot analysis of HBV RNA, Southern blot analysis of HBV DNA, and real-time PCR quantification of HBV DNA are described in the Supplementary Methods.
substance,measurement,setting,value
"SSTTSTGPCKTCTTPAQGTSMFP-K-biotin [Control, equal-length unrelated control biotin-labeled peptide]",HBcAg in cells,replicate 1,0.472 fold-change to WT
same,HBeAg in culture medium,replicate 1,0.329 fold-change to WT
same,HBsAg in culture medium,replicate 1,0.215 fold-change to WT
same,Secreted HBV DNA,replicate 1,990600 Copies/mL
same,HBcAg in cells,replicate 2,0.663 fold-change to WT
same,HBeAg in culture medium,replicate 2,0.389 fold-change to WT
same,HBsAg in culture medium,replicate 2,0.227 fold-change to WT
same,Secreted HBV DNA,replicate 2,564700 Copies/mL
same,HBcAg in cells,replicate 3,0.512 fold-change to WT
same,HBeAg in culture medium,replicate 3,0.344 fold-change to WT
same,HBsAg in culture medium,replicate 3,0.207 fold-change to WT
same,Secreted HBV DNA,replicate 3,887700 Copies/mL
